“Also recorded” adds a separate entry of the source.
Assays:
[1] = literature report; cited from earlier work
[2] = target: T1, MAO B (Homo sapiens, UniProt P27338); assay: Autoradiography with [18F]compound 13 on human brain sections (Alzheimer's disease), blocking with MAO B inhibitors; type: binding
T1 construct: Autoradiography using [^18F]compound 13 on human brain slices from four brains from patients with diagnosis of Alzheimer's disease; from tissue; host or cells: human brain sections (Alzheimer's disease patients and normal controls), 18 µm cryosections
T1 sequence (P27338 1-520): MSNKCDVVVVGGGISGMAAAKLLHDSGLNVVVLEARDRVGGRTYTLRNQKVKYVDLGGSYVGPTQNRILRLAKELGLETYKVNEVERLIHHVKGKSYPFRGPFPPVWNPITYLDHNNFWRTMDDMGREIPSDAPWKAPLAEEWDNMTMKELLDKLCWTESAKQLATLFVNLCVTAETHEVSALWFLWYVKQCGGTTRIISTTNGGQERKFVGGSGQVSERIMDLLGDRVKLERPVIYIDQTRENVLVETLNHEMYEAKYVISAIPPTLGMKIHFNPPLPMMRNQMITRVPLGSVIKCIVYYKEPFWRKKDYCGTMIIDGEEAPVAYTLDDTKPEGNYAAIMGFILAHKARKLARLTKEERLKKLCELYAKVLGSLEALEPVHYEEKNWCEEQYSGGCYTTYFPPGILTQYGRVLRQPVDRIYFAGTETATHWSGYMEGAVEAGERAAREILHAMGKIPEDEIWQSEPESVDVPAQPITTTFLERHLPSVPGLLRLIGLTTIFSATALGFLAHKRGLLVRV
Procedure: (§1) Thereafter, the slides were removed and brought to room temperature. […] The sections were dipped two times into ice cold distilled water, dried at room temperature and exposed to PhosphorImanger plates (FUJI BAS 5000) over night. For detection of the specificity of the signals an excess (10 μM) of Deprenyl, Pargylin (both for MAO B) and Clorgyline (for MAO A), respectively, was used. After exposure, the sections were immunohistochemically stained using a standard protocol with an anti-GFAP antibody to detect reactive astrocytes. Amyloid β plaques were detected with BAY 949172 (Rowe C C et al. Lancet Neutol 2008; 7: 129-135) using the binding protocol as described above.
FIG. 1A Autoradiographic signal after exposure on the PhosphorImager plate.
FIG. 2A Autoradiographic signal after exposure on the PhosphorImager plate.

[3] = Plasma radioactivity and plasma metabolites after injection in a cynomolgus monkey; details: compared with [11C]Deprenyl (and compound 5)
From the text: Plasma radioactivity profiles have been monitored over time. […] In addition, metabolites occurring in plasma over time have been monitored (FIGS. 8 and 9) for both ligands.

[4] = Biodistribution in NMRI mice (gamma counter); type: in vivo
Procedure: For each time point 3 mice have been used. The mice were injected each with 0.178 MBq[^18F]compound 13. After the respective time points the mice were sacrificed, the organs taken out and measured in a gamma counter. The results were decay corrected.

[5] = PET brain uptake (time activity curves, SUV) in a cynomolgus monkey; type: in vivo; details: e.g. striatum
[6] = target: T2, MAO A (Homo sapiens, UniProt P21397); assay: Autoradiography with [18F]compound 13 on human brain sections, blocking with MAO A inhibitor clorgyline; type: binding; details: human AD brain slices; excess (10 μM) of Clorgyline
T2 construct: Autoradiography using [^18F]compound 13 on human brain slices from four brains from patients with diagnosis of Alzheimer's disease; from tissue; host or cells: human brain sections (Alzheimer's disease patients), 18 µm cryosections
T2 sequence (P21397 1-527): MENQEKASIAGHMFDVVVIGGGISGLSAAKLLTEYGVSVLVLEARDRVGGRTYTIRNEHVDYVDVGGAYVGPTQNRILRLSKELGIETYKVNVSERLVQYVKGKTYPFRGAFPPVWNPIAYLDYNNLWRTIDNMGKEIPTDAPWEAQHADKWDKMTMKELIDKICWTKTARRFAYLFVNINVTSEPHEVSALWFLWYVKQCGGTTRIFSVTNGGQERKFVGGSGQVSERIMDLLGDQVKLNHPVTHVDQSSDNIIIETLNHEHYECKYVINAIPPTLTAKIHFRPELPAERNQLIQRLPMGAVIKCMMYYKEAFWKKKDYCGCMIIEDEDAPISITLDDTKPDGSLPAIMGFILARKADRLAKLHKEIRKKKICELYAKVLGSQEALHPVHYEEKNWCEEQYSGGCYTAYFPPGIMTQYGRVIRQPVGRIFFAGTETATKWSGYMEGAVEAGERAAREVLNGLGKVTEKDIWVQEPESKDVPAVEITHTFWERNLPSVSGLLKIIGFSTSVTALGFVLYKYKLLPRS
Procedure: as §1
FIG. 2A Autoradiographic signal after exposure on the PhosphorImager plate. Note the black dots in the tissue slices corresponding to areas with amyloid β plaques (see examples in FIG. 3).

SMILES | degradation to metabolite (reported) [1] | correspondence of autoradiographic signal to reactive astrocytes ([2]; human AD brain slice, GFAP immunoreactivity) | relation of autoradiographic signal to amyloid β plaque load ([2]; human AD brain slices, amyloid detected with BAY 949172) | blocking of autoradiographic signal by MAO B inhibitors (specificity for MAO B) ([2]; human AD brain slices, excess (10 μM) of Deprenyl or Pargylin) | in vivo metabolic stability [3] | brain uptake of radioactivity ([4]; 2 min p.i.) [% ID/g] | brain radioactivity ([4]; 30 min p.i.) [% ID/g] | brain radioactivity ([4]; after 4 hours) [% ID/g] | uptake and enrichment in specific regions, higher than [11C]Deprenyl [5] | blocking of autoradiographic signal by MAO A inhibitor clorgyline [6]
C#CCN(C)CCCCCC[18F] [compound 5] | degraded quickly towards a polar [^18F]-labelled metabolite | – | – | – | – | – | – | – | – | –
C#CCN(C)[C@H](C[18F])Cc1ccccc1 [[^18F]compound 13, N-[(2S)-1-(^18F)fluoro-3-phenylpropan-2-yl]-N-methylprop-2-yn-1-amine] | – | correspondence of the autoradiographic signal to reactive astrocytes is demonstrated | the signal density and intensity corresponds with the amyloid β plaque load | the signals could be blocked with deprenyl and pargylin; also recorded: the signals could be completely blocked with deprenyl | improved metabolic stability; also recorded: more stable than [^11C]Deprenyl | 7.5±0.04 | 2.10±0.33 | 1.34±0.26 | about 10% | not with clorgyline

— patent publication US10266506B2, “Compounds for use in imaging, diagnosing and/or treatment of diseases of the central nervous system or of tumors” (PIRAMAL IMAGING SA, priority 2007, dated 2019)
